Test system: patients with psoriatic arthritis
Assay: Phase 2 trial in psoriatic arthritis: PASI75 response at week 16
Format: in vivo, human
Settings: for Interaction Term for PASI75 response (ratio of odds ratios): week 16
Method: In a double-blind Phase 2 trial, 203 patients with psoriatic arthritis were randomized into three groups: deucravacitinib 6 mg once daily (N=70), deucravacitinib 12 mg once daily (N=67), or placebo (N=66). All subjects had active psoriatic arthritis according to the Classification Criteria for Psoriatic Arthritis (CASPAR); for active disease, these criteria required ≥3 tender joint count, ≥3 swollen joint count, and a C-reactive protein level above 3 mg/L. Other inclusion criteria included the following: presence of at least one plaque psoriasis lesion, and prior treatment failure with a non-biologic disease modifying anti-rheumatic drug, a non-steroidal anti-inflammatory drug, or a steroid. With respect to treatment history, approximately 70% of subjects had not received prior treatment with a biologic and were biologic naïve, while up to 30% of subjects had failed or had been intolerant to one TNF-inhibitor (TNF=Tumor necrosis factor, also known as TNFα). Randomization was stratified by prior TNF-inhibitor use (experienced/naïve) and body weight (<90 kg and ≥90 kg).
Clinical measures included the Psoriasis […] (PASI) score for skin psoriasis, American College of Rheumatology 20 (ACR20) response, Psoriatic Arthritis Disease Activity Score (PASDAS), Health Assessment Questionnaire-Disability Index (HAQ-DI), and Disease Activity Score 28 CRP (DAS28). To evaluate the predictive value of different protein measurements for the clinical response to deucravacitinib, baseline protein concentrations for responders and non-responders, as defined by ACR20 or PASI75 at week 16, were compared for each arm (placebo, 6 mg deucravacitinib once-daily, and 12 mg deucravacitinib once-daily).
In addition, a logistic regression model was fit, to determine whether baseline disease score (dichotomized by the median baseline score, into baseline score high and baseline score low groups) was associated with response status. The model generated an odds ratio for each dosed arm versus placebo, in baseline score high and baseline score low groups.
Boxplots for baseline protein level by response were generated with a horizontal line indicating the median protein level at baseline. For each treatment arm, a two-sample t-test was performed to test whether mean baseline serum protein level was different in responders versus non-responders. A Wilcoxon rank sum test (Mann-Whitney U test) was also performed to evaluate the difference in median serum protein level between responders and non-responders. Further, barplots of ACR20 and PASI75 response rate at week 16 for each treatment arm were generated for all subjects (protein level high and protein level low subjects, dichotomized according to median baseline level). Line plots of ACR20 and PASI75 response rate over time for each treatment arm were generated for protein level high and protein level low groups. Logistic regression models were also fit to evaluate associations between baseline protein levels and clinical outcome.
For certain analyses described herein, patients were dichotomized by median values (e.g., of the proteins listed above or other measures) into “high” and “low” groups, such that the high group had values above the median and the low group had values less than or equal to the median.
In addition, logistic regression models were fit for response measures ACR20 and PASI75, to generate the odds ratio of each of the deucravacitinib treatment arms versus placebo, in BD2-high and BD2-low groups. The following logistic regression models were used: • For ACR20 response status: ACR20 (Y/N)=treatment arm+BD2 group+treatment arm*BD2 group+TNF-inhibitor use+baseline weight (continuous). • For PASI75 response status: PASI75 (Y/N)=treatment arm+BD2 group+treatment arm*BD2 group+TNF-inhibitor use+baseline weight (continuous). […]

[1] = 12 mg QD, Above median baseline CRP level
[2] = 12 mg QD, Below median baseline CRP level

## [2H]C([2H])([2H])NC(=O)c1nnc(NC(=O)C2CC2)cc1Nc1cccc(-c2ncn(C)n2)c1OC [deucravacitinib, 6-(cyclopropanecarboxamido)-4-((2-methoxy-3-(1-methyl-1H-1,2,4-triazol-3-yl)phenyl)amino)-N-(methyl-d3)pyridazine-3-carboxamide]
6 mg QD, PASI75 responder, BD2-high-PASI-low
  Number of subjects: 4
6 mg QD, PASI75 responder, BD2-low-PASI-high
  Number of subjects: 2
6 mg QD, PASI75 responder, BD2-low-PASI-low
  Number of subjects: 5
6 mg QD, PASI75 responder, IL-17A-high-PASI-high
  Number of subjects: 12
6 mg QD, PASI75 responder, IL-17A-high-PASI-low
  Number of subjects: 7
6 mg QD, PASI75 responder, IL-17A-low-PASI-high
  Number of subjects: 4
6 mg QD, PASI75 responder, IL-17A-low-PASI-low
  Number of subjects: 2
6 mg QD, PASI75 responder, IL-19-high-PASI-high
  Number of subjects: 13
6 mg QD, PASI75 responder, IL-19-high-PASI-low
  Number of subjects: 6
6 mg QD, PASI75 responder, IL-19-low-PASI-high
  Number of subjects: 3
6 mg QD, PASI75 responder, IL-19-low-PASI-low
  Number of subjects: 3
12 mg QD vs placebo: BD2 high versus BD2 low
  Interaction Term for PASI75 response (ratio of odds ratios): 14.233
12 mg QD vs placebo: CRP high versus CRP low
  Interaction Term: treatment arm*CRP group, PASI75: 2.63
12 mg QD vs placebo: CRP-high versus CRP-low, adjusted for baseline PASI score
  Interaction Term: treatment arm*CRP group, PASI75: 3.18
12 mg QD vs placebo: IL-17A high versus IL-17A low, adjusted for baseline PASI score
  Interaction Term: treatment arm*IL-17A group, PASI75: 13.222
12 mg QD vs placebo: IL-17A high versus IL-17A low
  Interaction Term for PASI75 response (ratio of odds ratios): 12.089
12 mg QD vs placebo: baseline PASI high versus PASI low
  Interaction Term for PASI75 response (ratio of odds ratios): 6.42
[1]
  Number of subjects, PASI75 Non-responder at week 16: 7
  Number of subjects, PASI75 Responder at week 16: 18
[2]
  Number of subjects, PASI75 Non-responder at week 16: 14
  Number of subjects, PASI75 Responder at week 16: 13
12 mg QD, CRP-high-PASI-high
  Number of subjects, PASI75 Non-responder: 4
  Number of subjects, PASI75 Responder: 10
12 mg QD, CRP-high-PASI-low
  Number of subjects, PASI75 Non-responder: 3
  Number of subjects, PASI75 Responder: 8
12 mg QD, CRP-low-PASI-high
  Number of subjects, PASI75 Non-responder: 2
  Number of subjects, PASI75 Responder: 10
12 mg QD, CRP-low-PASI-low
  Number of subjects, PASI75 Non-responder: 12
  Number of subjects, PASI75 Responder: 3
12 mg QD, PASI75 non-responder at week 16, above baseline PASI median 6.6
  Number of subjects: 6
12 mg QD, PASI75 non-responder at week 16, above median baseline BD2 level
  Number of subjects: 11
12 mg QD, PASI75 non-responder at week 16, above median baseline IL-17A level
  Number of subjects: 8
12 mg QD, PASI75 non-responder at week 16, above median baseline IL-19 level
  Number of subjects: 6
12 mg QD, PASI75 non-responder at week 16, below baseline PASI median 6.6
  Number of subjects: 15
12 mg QD, PASI75 non-responder at week 16, below median baseline BD2 level
  Number of subjects: 13
12 mg QD, PASI75 non-responder at week 16, below median baseline IL-17A level
  Number of subjects: 13
12 mg QD, PASI75 non-responder at week 16, below median baseline IL-19 level
  Number of subjects: 14
12 mg QD, PASI75 non-responder, BD2-high-PASI-high
  Number of subjects: 5
12 mg QD, PASI75 non-responder, BD2-high-PASI-low
  Number of subjects: 5
12 mg QD, PASI75 non-responder, BD2-low-PASI-high
  Number of subjects: 1
12 mg QD, PASI75 non-responder, BD2-low-PASI-low
  Number of subjects: 10
12 mg QD, PASI75 non-responder, IL-17A-high-PASI-high
  Number of subjects: 5
12 mg QD, PASI75 non-responder, IL-17A-high-PASI-low
  Number of subjects: 3
12 mg QD, PASI75 non-responder, IL-17A-low-PASI-high
  Number of subjects: 1
12 mg QD, PASI75 non-responder, IL-17A-low-PASI-low
  Number of subjects: 12
12 mg QD, PASI75 non-responder, IL-19-high-PASI-high
  Number of subjects: 3
12 mg QD, PASI75 non-responder, IL-19-high-PASI-low
  Number of subjects: 3
12 mg QD, PASI75 non-responder, IL-19-low-PASI-high
  Number of subjects: 2
12 mg QD, PASI75 non-responder, IL-19-low-PASI-low
  Number of subjects: 12
12 mg QD, PASI75 responder at week 16, above baseline PASI median 6.6
  Number of subjects: 20
12 mg QD, PASI75 responder at week 16, above median baseline BD2 level
  Number of subjects: 23
12 mg QD, PASI75 responder at week 16, above median baseline IL-17A level
  Number of subjects: 18

Reference: patent US20240390369A1, “METHODS FOR DETERMINING RESPONSIVENESS TO TYK2 INHIBITORS” (Bristol-Myers Squibb Company, priority 2021, published 2024)
